Results taken from patent US10071076B2, “Methods of treating cancer and other disorders” (Wake Forest University Health Sciences, priority 2010, dated 2018).

How the values were obtained:
[1] = system: intracellular FASN in PC3 cells; assay: Inhibition of 14C-acetate incorporation in PC3 cells; format: cell-based; settings: for % inhibition of 14C-acetate incorp. PC3 cells: two hours drug, then two hour labeling, concentration not given
Procedure: Inhibition of ^14C-Acetate Incorporation in PC3 Cells.
This test ensures that the compound(s) target intracellular FASN correctly. The ability to inhibit FASN activity in cells will be performed by metabolic labeling of newly synthesized fatty acids with ^14C-acetate, as we have described previously. Briefly, PC-3 cells were seeded in 24-well plates at 50,000 cells per well. After 48 hours media was replaced with fresh media containing either drug or DMSO vehicle. As with the toxicity assay described below, the IC50 for the ability to inhibit FASN will also be determined. Cells will be incubated with a dose of each derivative compound that reflects the IC50's determined in the MTS assays. After two hours, 1 μCi of ^14C-acetate was added to each well for a two hour labeling period. The cells are then washed with PBS and collected by trypsinization. Lipids were finally isolated by Folch extraction and quantified by scintillation counting. The IC50 value for each compound against FASN in cells can then be determined.

[2] = molecular target: recombinant thioesterase TE1 (recombinant FASN-TE) (Homo sapiens, UniProt P49327); assay: Recombinant thioesterase inhibition assay (TE1); format: biochemical; settings: for inhibition at 10 µM: 10 μM compound, 30 min pre-incubation at 37° C., 4-MUH substrate; for IC50: recombinant thioesterase, approximate, read-out: approx, IC50 TE1
Procedure: (§1) Key to Table 2: Recombinant Thioesterase Inhibition Assay.
(§2) Briefly, recombinant FASN-TE (250 nM, 100 mM TRIS pH 7.4, 50 mM NaCl, 1 mM EDTA) was pre-incubated with inhibitors for 30 min at 37° C. prior to the addition of fluorogenic substrate, 4-methylumbelliferyl heptanoate (4-MUH, 120 μM) (56); the reaction was then monitored by following the increase in fluorescence using a Tecan Safire^2 96-well plate reader using 350/450 excitation/emission wavelengths. The IC50 values are then determined for each compound in the series.

PC3 prostate tumor cells = assay: MTS cell survival assay, PC3; format: cell-based; settings: doses 1-50 μM, time point not given
Procedure: (§3) Prostate tumor (PC3, DU145) and normal fibroblast controls (FS-4) cells were individually seeded in 96-well plates at a density of 4,000 cells per well. After 48 hours the cells are be treated with a dose of each compound (1-50 μM) or DMSO vehicle in fresh media. Cell viability of each cell line was then determined after 24, 48 and 72 hours of treatment with each compound by MTS assay (Roche). MTS assays provide a relative measure of cell viability based on the ability of mitochondria to metabolize a tetrazolium substrate to a colored formazan product. Viability is determined by colorimetric readout at 492 nm and determined relative to vehicle only treated cells. The IC50 for each drug, at each time point, will be determined by curve fitting.

[3] = molecular target: recombinant thioesterase TE2 (recombinant FASN-TE) (Homo sapiens, UniProt P49327); assay: Recombinant thioesterase inhibition assay (TE2); format: biochemical; settings: for inhibition at 10 µM: 10 μM compound, 30 min pre-incubation at 37° C., 4-MUH substrate; for IC50: recombinant thioesterase, approximate, read-out: approx, IC50 TE2
Procedure: as §1, §2

[4] = system: DU-145 prostate tumor cells; assay: MTS cell survival assay, DU-145; format: cell-based; settings: Homo sapiens, doses 1-50 μM, time point not given
Procedure: as §3

[5] = system: FS-4 normal fibroblast cells; assay: MTS cell survival assay, FS-4; format: cell-based; settings: FS-4 normal fibroblasts, doses 1-50 μM, time point not given
Procedure: as §3

recombinant thioesterase TE2 (recombinant FASN-TE), sequence (P49327 2200-2511): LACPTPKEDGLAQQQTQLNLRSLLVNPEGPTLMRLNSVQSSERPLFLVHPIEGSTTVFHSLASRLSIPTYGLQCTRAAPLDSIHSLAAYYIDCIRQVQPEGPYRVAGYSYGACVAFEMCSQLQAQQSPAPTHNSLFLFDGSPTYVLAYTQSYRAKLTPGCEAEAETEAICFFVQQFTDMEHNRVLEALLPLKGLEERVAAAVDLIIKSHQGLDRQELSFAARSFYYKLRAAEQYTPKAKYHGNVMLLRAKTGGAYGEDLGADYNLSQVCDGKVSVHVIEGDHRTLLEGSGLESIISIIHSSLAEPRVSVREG
recombinant thioesterase TE1 (recombinant FASN-TE), sequence (P49327 2207-2511 limits assumed): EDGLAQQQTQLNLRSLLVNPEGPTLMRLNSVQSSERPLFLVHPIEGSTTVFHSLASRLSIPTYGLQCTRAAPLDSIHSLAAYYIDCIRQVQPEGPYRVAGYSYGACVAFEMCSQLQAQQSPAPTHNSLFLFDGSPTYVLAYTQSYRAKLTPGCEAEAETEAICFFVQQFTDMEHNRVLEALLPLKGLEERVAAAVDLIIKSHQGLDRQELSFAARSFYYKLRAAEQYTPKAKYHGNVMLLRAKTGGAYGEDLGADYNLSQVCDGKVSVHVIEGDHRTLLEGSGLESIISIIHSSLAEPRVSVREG

Row | inhibition at 10 µM [2] | inhibition at 10 µM [3] | IC50 [2] | IC50 [3] | IC50 ([1]; Homo sapiens, PC-3, read-out: IC50 of inhibition of 14C-acetate incorp. PC3 cells) | Structure (SMILES) | % inhibition of 14C-acetate incorp. PC3 cells [1] | IC50 (PC3 prostate tumor cells) | IC50 [4] | IC50 [5]
1 | 69.5% | 96.8% | ~2.78 µM | ~0.41 µM |  | CCOC(=O)c1n[nH]c2c1C(=O)C(SCC(=O)OC)=CC2=O [TPI-00405-00-A] |  |  |  | 
2 | 73.6% | 96% |  |  |  | CCOC(=O)c1n[nH]c2c1C(=O)C(SCc1cccc(F)c1)=CC2=O [TPI-00406-00-A] | 37.7% |  |  | 
3 | 67.9% | 96.2% |  |  |  | CCOC(=O)c1n[nH]c2c1C(=O)C(SCc1ccc(C(F)(F)F)cc1)=CC2=O [TPI-00408-00-A] | 89.9% | 18.5 µM |  | 22.5 µM
4 | 59.6% | 91.7% |  |  |  | CCOC(=O)c1n[nH]c2c1C(=O)C(SCCCCO)=CC2=O [TPI-00410-00-A] | 1.85% |  |  | 
5 | 70.5% | 97.4% |  |  |  | CCOC(=O)c1n[nH]c2c1C(=O)C(Sc1ccc(-c3ccccc3)cc1)=CC2=O [TPI-00411-00-A] | 0.75% |  |  | 
6 | 81.6% | 98% |  |  |  | CCOC(=O)c1n[nH]c2c1C(=O)C(Sc1cccc(OC)c1)=CC2=O [TPI-00412-00-A] | 9.95% |  |  | 
7 | 79.7% | 97.5% |  |  |  | CCOC(=O)c1n[nH]c2c1C(=O)C(Sc1ccccc1)=CC2=O [TPI-00415-00-A] | 7.05% |  |  | 
8 | 74.8% | 97.8% |  |  |  | CCOC(=O)c1n[nH]c2c1C(=O)C(SCc1ccc(Cl)cc1)=CC2=O [TPI-00417-00-A] | 96.1% | 13.8 µM |  | 21 µM
9 | 65.5% | 95.9% |  |  |  | CCOC(=O)c1n[nH]c2c1C(=O)C(SCc1ccco1)=CC2=O [TPI-00418-00-A] | 92.2% | 31.7 µM |  | 37 µM
10 | 66.2% | 95.8% |  |  |  | CCCCCCCSC1=CC(=O)c2[nH]nc(C(=O)OCC)c2C1=O [TPI-00419-00-A] | 67.95% | 32 µM |  | 50 µM
11 | 62% | 95.3% |  |  |  | CCOC(=O)c1n[nH]c2c1C(=O)C(SCCC(=O)OC)=CC2=O [TPI-00420-00-A] | 68.5% | 37.5 µM |  | 42 µM
12 | 22.9% | 86.8% |  |  |  | CCOC(=O)c1n[nH]c2c1C(=O)C(SCC(=O)Nc1ccccc1)=CC2=O [TPI-00422-00-A] | 0% | 48 µM |  | > 50 µM

Second part, the compound before the results:

Row | Structure (SMILES) | inhibition at 10 µM [2] | inhibition at 10 µM [3] | IC50 [2] | IC50 [3] | IC50 ([1]; Homo sapiens, PC-3, read-out: IC50 of inhibition of 14C-acetate incorp. PC3 cells) | % inhibition of 14C-acetate incorp. PC3 cells [1] | IC50 (PC3 prostate tumor cells) | IC50 [4] | IC50 [5]
13 | COc1cc(O)c2onc(-c3ccccc3)c2c1O [TPI-00401-00-A] | 40% | 55.9% |  |  |  | 29.1% | 33 µM | > 50 µM | 
14 | C=C1C=C(SCC)C(=O)c2c(C(=O)OCC)n[nH]c21 [TPI-00402-00-A] | 66.6% | 95.7% | ~2.35 µM | ~0.56 µM |  | 90.4% | 18.8 µM | 40 µM | 20.9 µM
15 | C=C1C=C(S)C(=O)c2c(C(=O)OCC)n[nH]c21 [TPI-00403-00-A] | 69.3% | 79.3% | ~3.9 µM | ~2.42 µM | 6.75 µM | 97% | 3.25 µM | 15.6 µM | 9.15 µM
16 | CCOC(=O)c1n[nH]c2c1C(=O)C(SCc1ccc(F)cc1F)=CC2=O [TPI-00407-00-A] | 66% | 94.9% |  |  |  | 37.8% |  |  | 
17 | CCOC(=O)c1n[nH]c2c1C(=O)C(SCC(=O)NC)=CC2=O [TPI-00409-00-A] | 53.5% | 92.2% |  |  |  | 0% |  |  | 
18 | CCOC(=O)c1n[nH]c2c1C(=O)C(SCCOCCOC)=CC2=O [TPI-00413-00-A] | 50.2% | 94.8% |  |  |  | 20.2% |  |  | 
19 | CCOC(=O)c1n[nH]c2c1C(=O)C(SC1CCCC1)=CC2=O [TPI-00414-00-A] | 52.2% | 86.4% |  |  |  | 92.4% | 25 µM |  | 33 µM
20 | CCOC(=O)c1n[nH]c2c1C(=O)C(SCc1ccc(OC)cc1)=CC2=O [TPI-00416-00-A] | 64.3% | 96.5% |  |  |  | 89.9% | 25.8 µM |  | 33 µM
21 | CNC(=O)CSC1=CC(=O)c2[nH]ncc2C1=O [TPI-00421-00-A] | 100% | 100% | ~1.02 µM |  |  | 70% | 17.9 µM |  | 41 µM
22 | O=C(Nc1ccccc1)c1n[nH]c2c1C(=O)C(SCCCCO)=CC2=O [TPI-00423-00-A] | 79.8% | 98% |  |  |  | 87.25% | 20 µM |  | 25 µM
23 | O=C(Nc1ccccc1)c1n[nH]c2c1C(=O)C(SCc1ccc(C(F)(F)F)cc1)=CC2=O [TPI-00424-00-A] | 92.6% | 100% |  |  |  | 0% | 27 µM |  | 50 µM
